Results taken from patent US10172835B2, “Anticancer agent composition” (J-Pharma Co., Ltd., priority 2014, dated 2019).

What was measured:
[1] = test system: normal cord blood mononuclear cells; test: Viability of normal human cord blood mononuclear cells (DAPI, Facs); format: cell-based; settings: 5.0 and 10.0 μM, 48 h
HT-29 colon cancer cells = settings: Reference 43; cited from earlier work
normal murine thymocytes = test: WST-1 cell viability of normal thymocytes; format: cell-based
Protocol: (§1) Two different assays were employed: i) In a 96-well plate format, cells (4.0±0.1×10^4 per well; 100 μL) were incubated with effectors (48 h, 37° C.; n=4 per experiment) and then WST-1 reagent (10 μL; Roche Diagnostics) added to each well of 96-well plates, incubated, and the formazan production was measured at 490 nm; and ii) cells (2.0±0.1×10^4 per well; 100 μL) were incubated with effectors (48 h, 37° C.; n=4 per experiment) and then bromodeoxyuridine reagent (10 μL/well; Roche Diagnostics) was added to each well and incubated (8 h, 37° C.). The cells were then fixed, denatured and incubated with anti-BrdU-conjugated with peroxidase (POD) antibody (100 μL/well). Colorimetric substrate (TMB: tetramethyl-benzidine; 100 μL/well) was added and BrdU incorporation quantified via optical density measurement (450 nm) which corresponds to DNA synthesis and proliferating cells.

KO99L cells [2] = test: BrdU incorporation Elisa (proliferation) on KO99L cells; format: cell-based, murine; settings: 10.0 μM, after 48 h
Protocol: as §1

KO99L cells [3] = test: Annexin-V / DAPI apoptosis assay, KO99L cells; format: cell-based, murine; settings: 48 hr
Protocol: Apoptosis assessment was performed by measuring phosphatidyl-serine membrane redistribution via annexin-V-FITC (Invitrogen). Cells (5.0±0.1×10^5 per well; 2.0 mL) were incubated with effectors, and re-suspended in staining solution (110 μL; Annexin-V ( 1/10) and incubated in the dark (15 min, RT). […] Basal apoptosis and necrosis were determined on control untreated cells.

KO99-S cells = test: Cell death (PI staining) of parental KO99-S cells; format: cell-based, murine; settings: 48 h
Jurkat T-ALL line = test: Cell viability of Jurkat human T-ALL cells; format: cell-based
Protocol: as §1

caspase 3 = test: Active caspase 3 staining with Red-DEVD-fmk, KO99L cells; format: cell-based, murine; settings: countered by QvD-OPH
Protocol: Cells (1.0±0.1×10^6 per well; 1.0 mL) were stimulated with different COMPOUND-JP doses with or without caspase3 inhibitor Qvd-OH (20 μM). Cells were then stained with caspase 3 inhibitor conjugated (RED-DEVD-FMK; Biovision) and incubated (1.0 h, 37° C. at 5% CO2). Cells were washed with Wash Buffer, then centrifuged (3000 rpm, 5.0 min) and stained with annexin V-FITC (10 μL/mL; Miltenyi Biotech) for 30 min and DAPI (1.0 μg/mL) added prior to examination via a MacsQuant Analyser.

Nc1cc(COc2c(Cl)cc(C[C@H](N)C(=O)O)cc2Cl)c2oc(-c3ccccc3)nc2c1 [COMPOUND-JP, O-(5-amino-2-phenylbenzoxazole-7-yl)methyl-3,5-dichloro-L-tyrosine]
normal cord blood mononuclear cells (living cells) [1]: did not significantly alter
growth of HT-29 colon cancer cells transplanted in nude mice (HT-29 colon cancer cells): reduce the growth
toxicity in normal murine thymocytes (normal murine thymocytes): non-toxic
diminished cell cycling (proliferation) (KO99L cells [2]): 75%
levels of apoptosis (annexin-V+ and annexin-V+/DAPI+) compared to control (KO99L cells [3]; 10.0 μM): 2.8 fold
levels of apoptosis (annexin-V+ and annexin-V+/DAPI+) compared to control (KO99L cells [3]; 20.0 μM): 3.8 fold
cell death (KO99-S cells): concentration dependent cell death
cell survival (Jurkat T-ALL line): alter cell survival
cell-associated fluorescence via Red-DEVD-fmk (caspase 3 activation) (caspase 3): dose and time-dependent
